Reference: patent US10364245B2 (CHIESI FARMACEUTICI S.p.A., priority 2017, dated 2019)
Where a name gives a salt, the structure may show the parent alone.

Tests used:
p38 alpha = target: T1, p38 alpha (Homo sapiens, UniProt Q16539); experiment: P38 alpha enzyme inhibition assay (Alphascreen kinase activity assay); assay type: biochemical; details: 100 pM p38 alpha, 2 hours preincubation at 25° C., 250 μM ATP, ATF-2 fusion protein; read-out: p38α inhibition
T1 construct: purchased Invitrogen PV3304
T1 sequence (Q16539 whole entry, the tested form may be a part): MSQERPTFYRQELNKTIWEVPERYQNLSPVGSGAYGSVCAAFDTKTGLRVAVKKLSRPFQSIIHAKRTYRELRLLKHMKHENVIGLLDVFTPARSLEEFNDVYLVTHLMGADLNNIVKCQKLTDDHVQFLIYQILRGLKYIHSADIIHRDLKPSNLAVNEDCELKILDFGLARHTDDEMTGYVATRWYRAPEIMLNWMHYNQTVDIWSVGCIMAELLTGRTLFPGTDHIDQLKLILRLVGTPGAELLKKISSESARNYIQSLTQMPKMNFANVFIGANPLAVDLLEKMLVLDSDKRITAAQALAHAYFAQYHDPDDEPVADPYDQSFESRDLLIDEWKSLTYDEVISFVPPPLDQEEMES
Summary of the method: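 100 pM p38 alpha preincubated 2 h at 25 °C with compound and 0.3 μg/ml ATF-2 fusion substrate (HEPES pH 7.5, MgCl2, 1% DMSO). Reaction started with 250 μM ATP, run 1 h at 25 °C, stopped with EDTA; phospho-ATF2 detected by AlphaScreen luminescence. IC50 from concentration-response curves.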

[1] = system: Peripheral Blood Mononuclear Cells (PBMCs), TNFα release; experiment: LPS-stimulated PBMC TNFα release assay; assay type: cell-based; details: human PBMC, LPS (10 ng/ml), 18 h, compound 1 h before LPS; read-out: LPS-stimulated PBMC TNFα release inhibition
Summary of the method: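 Human PBMCs from healthy donors, serum-starved 3 h, then pre-incubated 1 h at 37 °C with compound in 1% FBS medium before LPS (10 ng/ml) for 18 h. Supernatant TNFα measured by MSD; IC50 from dose-response as % inhibition of control, at least three experiments.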

| Compound | IC50 (p38 alpha) [nM] | IC50 [1] [nM] |
| --- | --- | --- |
| CC(C)(C)c1cc(NC(=O)N[C@H]2CC[C@@H](Oc3ccc4nnc(C5(C)CCCC5)n4c3)c3ccccc32)nc(C(=O)NCCCN2CCOCC2)n1 [Example 184, 4-(tert-Butyl)-6-(3-((1S,4R)-4-((3-(1-methylcyclopentyl)-[1,2,4]triazolo[4,3-a]pyridin-6-yl)oxy)-1,2,3,4-tetrahydronaphthalen-1-yl)ureido)-N-(3-morpholinopropyl)-pyrimidine-2-carboxamide formate salt] | < 1 | < 1 |
| CN1CC(NC(=O)c2nc(NC(=O)N[C@H]3CC[C@@H](Oc4ccc5nnc(C(C)(C)C)n5c4)c4ccccc43)cc(C(C)(C)C)n2)C1 [Example 81, 4-(tert-butyl)-6-(3-((1S,4R)-4-((3-(tert-butyl)-[1,2,4]triazolo[4,3-a]pyridin-6-yl)oxy)-1,2,3,4-tetrahydronaphthalen-1-yl)ureido)-N-(1-methylazetidin-3-yl)pyrimidine-2-carboxamide] | < 1 | > 5 |
| CC(C)(C)c1cc(NC(=O)N[C@H]2CC[C@@H](Oc3ccc4nnc(C(C)(C)C)n4c3)c3ccccc32)nc(C(=O)NCCN2CCC2)n1 [Example 140, N-(2-(azetidin-1-yl)ethyl)-4-(tert-butyl)-6-(3-((1S,4R)-4-((3-(tert-butyl)-[1,2,4]triazolo[4,3-a]pyridin-6-yl)oxy)-1,2,3,4-tetrahydronaphthalen-1-yl)ureido)pyrimidine-2-carboxamide] | < 1 | > 5 |
| COCC(C)(C)c1nnc2ccc(O[C@@H]3CC[C@H](NC(=O)Nc4cc(C(C)(C)C)nc(C(=O)NCC(C)(C)N5CCN(C)CC5)n4)c4ccccc43)cn12 [Example 155, 4-(tert-butyl)-6-(3-((1S,4R)-4-((3-(1-methoxy-2-methylpropan-2-yl)-[1,2,4]triazolo[4,3-a]pyridin-6-yl)oxy)-1,2,3,4-tetrahydronaphthalen-1-yl)ureido)-N-(2-methyl-2-(4-methylpiperazin-1-yl)propyl)pyrimidine-2-carboxamide] | < 1 | > 5 |
| CCN(C)C(C)(C)CNC(=O)c1nc(NC(=O)N[C@H]2CC[C@@H](Oc3ccc4nnc(C(C)(C)COC)n4c3)c3ccccc32)cc(C(C)(C)C)n1 [Example 152, 4-(tert-butyl)-N-(2-(ethyl(methyl)amino)-2-methylpropyl)-6-(3-((1S,4R)-4-((3-(1-methoxy-2-methylpropan-2-yl)-[1,2,4]triazolo[4,3-a]pyridin-6-yl)oxy)-1,2,3,4-tetrahydronaphthalen-1-yl)ureido)pyrimidine-2-carboxamide] | < 1 | > 5 |
| CC(C)(C)c1cc(NC(=O)N[C@H]2CC[C@@H](Oc3ccc4nnc(C(C)(C)C)n4c3)c3ccccc32)nc(C(=O)NCCO)n1 [Example 16, 4-(tert-Butyl)-6-(3-((1S,4R)-4-((3-(tert-butyl)-[1,2,4]triazolo[4,3-a]pyridin-6-yl)oxy)-1,2,3,4-tetrahydronaphthalen-1-yl)ureido)-N-(2-hydroxyethyl)pyrimidine-2-carboxamide] | < 1 | < 1 |
| CN1CCC[C@@]1(C)c1nnc2ccc(O[C@@H]3CC[C@H](NC(=O)Nc4cc(C(C)(C)C)nc(C(=O)NCCO)n4)c4ccccc43)cn12 [Example 29, 4-(tert-Butyl)-6-(3-((1S,4R)-4-((3-((S)-1,2-dimethylpyrrolidin-2-yl)-[1,2,4]triazolo[4,3-a]pyridin-6-yl)oxy)-1,2,3,4-tetrahydronaphthalen-1-yl)ureido)-N-(2-hydroxyethyl)pyrimidine-2-carboxamide] | < 1 | < 1 |
| CC(C)(C)c1cc(NC(=O)N[C@H]2CC[C@@H](Oc3ccc4nnc(C(C)(C)C)n4c3)c3ccccc32)nc(C(=O)NCCN2CCC(O)CC2)n1 [Example 108, 4-(tert-butyl)-6-(3-((1S,4R)-4-((3-(tert-butyl)-[1,2,4]triazolo[4,3-a]pyridin-6-yl)oxy)-1,2,3,4-tetrahydronaphthalen-1-yl)ureido)-N-(2-(4-hydroxypiperidin-1-yl)ethyl)pyrimidine-2-carboxamide] | < 1 | > 5 |
| CC(C)Cc1nnc2ccc(O[C@@H]3CC[C@H](NC(=O)Nc4cc(C(C)(C)C)nc(C(=O)NCCN(C)C)n4)c4ccccc43)cn12 [Example 91, 4-(tert-butyl)-N-(2-(dimethylamino)ethyl)-6-(3-((1S,4R)-4-((3-isobutyl-[1,2,4]triazolo[4,3-a]pyridin-6-yl)oxy)-1,2,3,4-tetrahydronaphthalen-1-yl)ureido)pyrimidine-2-carboxamide] | 1 to 10 | > 5 |
| COCC(C)(C)c1nnc2ccc(O[C@@H]3CC[C@H](NC(=O)Nc4cc(C(C)(C)C)nc(C(=O)NCCCN5CCOCC5)n4)c4ccccc43)cn12 [Example 121, 4-(tert-butyl)-6-(3-((1S,4R)-4-((3-(1-methoxy-2-methylpropan-2-yl)-[1,2,4]triazolo[4,3-a]pyridin-6-yl)oxy)-1,2,3,4-tetrahydronaphthalen-1-yl)ureido)-N-(3-morpholinopropyl)-pyrimidine-2-carboxamide] | < 1 | 1 to 5 |
| CC(C)(C)c1cc(NC(=O)N[C@H]2CC[C@@H](Oc3ccc4nnc(C(C)(C)C)n4c3)c3ccccc32)cc(C(=O)NCCN2CC[C@H](O)C2)n1 [Example 195, 6-(tert-butyl)-4-(3-((1S,4R)-4-((3-(tert-butyl)-[1,2,4]triazolo[4,3-a]pyridin-6-yl)oxy)-1,2,3,4-tetrahydronaphthalen-1-yl)ureido)-N-(2-((S)-3-hydroxypyrrolidin-1-yl)ethyl)picolinamide] | < 1 | > 5 |
| C[C@@H]1CCC[C@H](C)N1c1nnc2ccc(O[C@@H]3CC[C@H](NC(=O)Nc4cc(C(C)(C)C)nc(C(=O)NCCN(C)C)n4)c4ccccc43)cn12 [Example 20, 4-(tert-Butyl)-N-(2-(dimethylamino)ethyl)-6-(3-((1S,4R)-4-((3-((2R,6S)-2,6-dimethylpiperidin-1-yl)-[1,2,4]triazolo[4,3-a]pyridin-6-yl)oxy)-1,2,3,4-tetrahydronaphthalen-1-yl)ureido)pyrimidine-2-carboxamide] | < 1 | 1 to 5 |
| COc1ncc(C(C)(C)C)cc1NC(=O)N[C@H]1CC[C@@H](Oc2ccc3nnc([C@@H]4CCCN4C)n3c2)c2ccccc21 [Example 35, 1-(5-(tert-Butyl)-2-methoxypyridin-3-yl)-3-((1S,4R)-4-((3-((S)-1-methylpyrrolidin-2-yl)-[1,2,4]triazolo[4,3-a]pyridin-6-yl)oxy)-1,2,3,4-tetrahydronaphthalen-1-yl)urea hydrochloride Salt] | < 1 | < 1 |
| CC(C)(C)c1cc(NC(=O)N[C@H]2CC[C@@H](Oc3ccc4nnc(C(C)(C)C)n4c3)c3ccccc32)nc(C(=O)N[C@H]2C[C@H](CO)C2)n1 [Example 83, 4-(tert-butyl)-6-(3-((1S,4R)-4-((3-(tert-butyl)-[1,2,4]triazolo[4,3-a]pyridin-6-yl)oxy)-1,2,3,4-tetrahydronaphthalen-1-yl)ureido)-N-((1s,3R)-3-(hydroxymethyl)-cyclobutyl)pyrimidine-2-carboxamide] | < 1 | 1 to 5 |
| CN1CCC[C@@]1(C)c1nnc2ccc(O[C@@H]3CC[C@H](NC(=O)Nc4cc(CO)nc(C(C)(C)C)c4)c4ccccc43)cn12 [Example 51, 1-(2-(tert-Butyl)-6-(hydroxymethyl)pyridin-4-yl)-3-((1S,4R)-4-((3-((S)-1,2-dimethylpyrrolidin-2-yl)-[1,2,4]triazolo[4,3-a]pyridin-6-yl)oxy)-1,2,3,4-tetrahydronaphthalen-1-yl)urea] | < 1 | < 1 |
| CC(C)(C)c1cc(NC(=O)N[C@H]2CC[C@@H](Oc3ccc4nnc(C(C)(C)C)n4c3)c3ccccc32)nc(C(=O)NCCN2CCCOCC2)c1 [Example 209, N-(2-(1,4-oxazepan-4-yl)ethyl)-4-(tert-butyl)-6-(3-((1S,4R)-4-((3-(tert-butyl)-[1,2,4]triazolo[4,3-a]pyridin-6-yl)oxy)-1,2,3,4-tetrahydronaphthalen-1-yl)ureido)picolinamide formate salt] | < 1 | < 1 |
| CN(C)CCC(=O)NCc1nc(NC(=O)N[C@H]2CC[C@@H](Oc3ccc4nnc(C(C)(C)C)n4c3)c3ccccc32)cc(C(C)(C)C)n1 [Example 127, N-((4-(tert-butyl)-6-(3-((1S,4R)-4-((3-(tert-butyl)-[1,2,4]triazolo[4,3-a]pyridin-6-yl)oxy)-1,2,3,4-tetrahydronaphthalen-1-yl)ureido)pyrimidin-2-yl)methyl)-3-(dimethylamino)-propanamide] | < 1 | > 5 |
| CC(C)(C)c1cc(NC(=O)N[C@H]2CC[C@@H](Oc3ccc4nnc(C(C)(C)C)n4c3)c3ccccc32)nc(C(=O)NCCN2CC(O)C2)n1 [Example 78, 4-(tert-butyl)-6-(3-((1S,4R)-4-((3-(tert-butyl)-[1,2,4]triazolo[4,3-a]pyridin-6-yl)oxy)-1,2,3,4-tetrahydronaphthalen-1-yl)ureido)-N-(2-(3-hydroxyazetidin-1-yl)ethyl)pyrimidine-2-carboxamide] | < 1 | > 5 |
| CC[C@H](C)c1nnc2ccc(O[C@@H]3CC[C@H](NC(=O)Nc4cc(C(C)(C)C)nc(C(=O)NCCN5CC(OC)C5)n4)c4ccccc43)cn12 [Example 169, 4-(tert-butyl)-6-(3-((1S,4R)-4-((3-((S)-sec-butyl)-[1,2,4]triazolo[4,3-a]pyridin-6-yl)oxy)-1,2,3,4-tetrahydronaphthalen-1-yl)ureido)-N-(2-(3-methoxyazetidin-1-yl)ethyl)pyrimidine-2-carboxamide] | < 1 | 1 to 5 |
